# Experimental data as given in patent US20110190155A1 (Korea Institute of Science and Technology, priority 2007, published 2011).
# Experiments:
# in vitro = format: cell-based; settings: human
# Experimental: BEAS-2B (CRL-9609, ATCC, USA), a human bronchial epithelial cell line, was cultured in a T 75 flask containing DMEM (Gibco-BRL, USA) supplemented with 10% FBS at the concentration of 5×10^5 cells/ml. […] The concentration of the vehicle was less than 0.1% in every experiment.
# MTT assay with the BEAS-2B cell line was performed according to the method of Mossman et al (J. Immunol. Methods, 65, 55-63, 1983). […] 48 hours later, MTT (3-[4,5-dimethylthiazol-2-yl]-2,5-diphenyltetra zolium bromide) 5 mg/ml was added at the concentration of 5 mg/ml, followed by culture at 37° C. for 3 hours. Then, medium was eliminated and generated formazan crystal was dissolved in 500 μl of DMSO. The solution was aliquoted in a 96 well-plate and OD540 was measured.
# [1] = cited from earlier work
# [2] = patients treated with amiodarone
# Experimental for BEAS-2B cells: Total RNA was extracted from the cells using trizol reagent (Invitrogen life technologies, USA) according to the manufacturer's instruction and the extracted RNA was purified by using RNeasy mini kit (Qiagen, USA). The genomic DNA was eliminated during the purification of RNA using RNase-free DNase set (Qiagen, USA). The total RNA was quantified by spectrophotometer and purity was measured by Agilent 2100 Bioanalyzer (Agilent Technologies, USA).
# 30 μg of the total RNA and 2 μg (1 μg/μl) of oligo (dT) primer were mixed, followed by reaction for 10 minutes at 65° C. Then, the reaction mixture was put in ice, followed by annealing.
# At this time, the two samples were mixed and purified by Microcon YM-30 column (Millipore, USA).
# Hybridization and washing were performed according to the instruction of GeneCneck Co., Ltd. Hybridization was performed in a 62° C. oven for 12 hours. At this time, 44 k whole human genome oligo microarray (Agilent, USA) was used as a DNA microarray chip. […]
# Scanning of the hybridized images on the slide was performed by using Genepix 4000B (Axon Instruments, USA). Fluorescence images of the chip washed to eliminate non-binding genes were obtained by laser fluorescence scanner. […] The scanned images were analyzed by GenePix 4.1 software (Axon Instruments, USA) to calculate the gene expression rate.
structure (smiles),measurement,setting,value
CCCCc1oc2ccccc2c1C(=O)c1cc(I)c(OCCN(CC)CC)c(I)c1 [amiodarone],genes identified to be up-regulated,"BEAS-2B cells; 44 genes out of 44,290 genes, Cy5/Cy3 more than 2.0 fold",0.1%
same,genes identified to be down-regulated,"BEAS-2B cells; 45 genes out of 44,290 genes, Cy5/Cy3 less than 0.5 fold",0.10%
same,IC20 at 48 h,in vitro,29.4 µM
same,"patients exhibiting boredom, fatigue, tremor, walking difficulty and peripheral neuropathy",[1]; [2],20-40%
same,"patients showing gastrointestinal disorder, nausea, vomiting, constipation and loss of appetite",[1]; [2],Approximately 25%
same,patients treated with amiodarone exhibiting side effects,[1]; patients,approximately 50%
